In patent US20210386781A1, “A GROUP OF CHIMERIC ANTIGEN RECEPTORS (CARS)” (ST. ANNA KINDERKREBSFORSCHUNG, priority 2018, published 2021):

Legend:
[1] = tested on: A431-fLuc; experiment: Luciferase-based cytotoxicity assay, stably transduced CAR T cells against A431-fLuc, Example 4; assay type: cell-based, human; conditions: T cells without CAR expression; 10 nM
Experimental: Luciferase-expressing tumour cells were co-cultured with CAR T cells at an E:T cell ratio of 2:1 with 10,000 target cells/well in white round-bottom 96 well plates for 4 hours at 37° C. in cytotoxicity assay medium, consisting of phenol-free RPMI, 10% FCS, 1% L-Glutamine and 1% penicillin-streptomycin. Finally, remaining living cells were quantified by determination of the residual luciferase activity of the co-culture. After equilibration to room temperature for 10 minutes, luciferin was added to the cell suspension (150 μg/mL final concentration) and luciferase activity was measured 20 minutes later using the ENSPIRE Multimode plate reader. The percentage of specific lysis was determined with the following formula:
% specific lysis=100−((RLU from well with effector and target cell co-culture)/(RLU from well with target cells only)×100)).
Dimerization of transgenes was induced prior to co-cultivation experiments. Primary T cells were diluted to the final cell concentration in the respective cell culture medium. The homodimerization agent AP20187 was diluted in cell culture medium and was added at 10 nM final concentration. Addition of the respective vehicle control DMSO at the same concentration served as control. Cells were incubated at 37° C. for 30 minutes to ensure efficient dimerization of transgenes and subsequently used for in vitro experiments.

[2] = tested on: Jurkat T cells expressing tHER2; experiment: Luciferase-based cytotoxicity assay, affibody-based CAR T cells against tHER2-expressing Jurkat T cells, Example 8; assay type: cell-based, human; conditions: binder fused to 8ser-BB-FKBP(36V)-3z; with or without 10 nM AP20187; E:T 2:1, 4 hours
Experimental: Luciferase-expressing tumour cells were co-cultured with CAR T cells at an E:T cell ratio of 2:1 with 10,000 target cells/well in white round-bottom 96 well plates for 4 hours at 37° C. in cytotoxicity assay medium, consisting of phenol-free RPMI, 10% FCS, 1% L-Glutamine and 1% penicillin-streptomycin. Finally, remaining living cells were quantified by determination of the residual luciferase activity of the co-culture. After equilibration to room temperature for 10 minutes, luciferin was added to the cell suspension (150 μg/mL final concentration) and luciferase activity was measured 20 minutes later using the ENSPIRE Multimode plate reader. The percentage of specific lysis was calculated with the following formula:
Dimerization of transgenes was induced prior to co-cultivation experiments. Primary T cells were diluted to the final cell concentration in the respective cell culture medium. The homodimerization agent AP20187 was diluted in cell culture medium and was added at 10 nM final concentration. Addition of the vehicle control DMSO at the same concentration served as control. Cells were incubated at 37° C. for 30 minutes to ensure efficient dimerization of transgenes and subsequently used for in vitro experiments.

Compound	effect of the dimerization agent itself on lysis of target cells [1]	capacity to trigger cytotoxicity in presence or absence of AP20187 [2]
CC[C@H](C(=O)N1CCCC[C@H]1C(=O)O[C@H](CCc1ccc(OC)c(OC)c1)c1cccc(OCC(=O)NCC(CNC(=O)COc2cccc([C@@H](CCc3ccc(OC)c(OC)c3)OC(=O)[C@@H]3CCCCN3C(=O)[C@@H](CC)c3cc(OC)c(OC)c(OC)c3)c2)CN(C)C)c1)c1cc(OC)c(OC)c(OC)c1 [AP20187, reference compound]	no effects on the lysis of target cells	–
zHER2-WT: high-affinity anti-HER2 affibody with point mutations N23A and S33K	–	efficient target cell lysis independent of presence of AP20187
